# Where a name gives a salt, the structure may show the parent alone.
# Assays:
# [1] = target: T1, proMMP9(67-444;ΔFnII) (SEQ ID NO:5) (Homo sapiens, UniProt P14780, DEL216-390); assay: ThermoFluor binding assay with proMMP9(67-444;ΔFnII)
# T1 construct: start methionine (N); made in house; host or cells: E. coli BL21(DE3) RIL
# T1 sequence (P14780 with tags, fused parts or gaps DEL216-390): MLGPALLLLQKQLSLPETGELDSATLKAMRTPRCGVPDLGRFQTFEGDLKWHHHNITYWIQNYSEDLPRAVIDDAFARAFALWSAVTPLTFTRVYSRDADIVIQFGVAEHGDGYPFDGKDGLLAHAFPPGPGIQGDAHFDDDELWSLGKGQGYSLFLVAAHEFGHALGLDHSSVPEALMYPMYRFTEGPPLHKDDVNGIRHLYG
# Experimental: (§1) The ThermoFluor® (TF) assay is a 384-well plate-based binding assay that measures thermal stability of proteins (Biomol Screen 2001, 6, 429-40; Biochemistry 2005, 44, 5258-66). The experiments were carried out using instruments available from Johnson & Johnson Pharmaceutical Research & Development, LLC. TF dye used in all experiments was […] (1,8-ANS) (Invitrogen: A-47).
# (§2) Compounds were arranged in a pre-dispensed plate (Greiner Bio-one: 781280), wherein compounds were serially diluted in 100% DMSO across 11 columns within a series. Columns 12 and 24 were used as DMSO reference and contained no compound. For multiple compound concentration-response experiments, the compound aliquots ([…]) were robotically predispensed directly into black 384-well polypropylene PCR microplates (Abgene: TF-0384/k) using a Cartesian Hummingbird liquid handler (DigiLab, Holliston, Mass.). Following compound dispense, protein and dye solutions were added to achieve the final assay volume of 3 μL. The assay solutions were overlayed with 1 μL of silicone oil (Fluka, type DC 200: 85411) to prevent evaporation.
# (§3) Assay plates were robotically loaded onto a thermostatically controlled PCR-type thermal block and then heated from 40 to 90° C. at a ramp-rate of 1° C./min for all experiments. Fluorescence was measured by continuous illumination with UV light (Hamamatsu LC6) supplied via fiber optics and filtered through a band-pass filter (380-400 nm; >60D cutoff). Fluorescence emission of the entire 384-well plate was detected by measuring light intensity using a CCD camera (Sensys, Roper Scientific) filtered to detect 500±25 nm, resulting in simultaneous and independent readings of all 384 wells. A single image with 20-sec exposure time was collected at each temperature, and the sum of the pixel intensity in a given area of the assay plate was recorded vs temperature and fit to standard equations to yield the Tm (J Biomol Screen 2001, 6, 429-40).
# (§4) Thermodynamic parameters necessary for fitting compound binding for each proMMP were estimated by differential scanning calorimetry (DSC) and from ThermoFluor® data. The heat capacity of unfolding for each protein was estimated from the molecular weight and from ThermoFluor® dosing data.
# ThermoFluor® with proMMP9(67-444;ΔFnII) (SEQ ID NO:5)
# The protein sample preparations had to include a desalting buffer exchange step via a PD-10 gravity column (GE Healthcare). The desalting buffer exchange was performed prior to diluting the protein to the final assay concentration of 3.5 μM proMMP9(67-444;ΔFnII) (SEQ ID NO:5). The concentration of proMMP9(67-444;ΔFnII) (SEQ ID NO:5) was determined spectrophotometrically based on a calculated extinction coefficient of ε280=33900 M^−1cm^−1, a calculated molecular weight of 22.6 kDa, and calculated pI of 5.20. ThermoFluor® reference conditions were defined as follows: 80 μg/mL (3.5 μM) proMMP9(67-444;ΔFnII) (SEQ ID NO:5), 50 μM 1,8-ANS, pH 7.0 Buffer (50 mM HEPES pH 7.0, 100 mM NaCl, 0.001% Tween-20, 2.5 mM MgCl2, 300 μM CaCl2). The thermodynamic parameters for proMMP9(67-444;ΔFnII) (SEQ ID NO:5) are as follows: Tm (° C.)=63 (+/−0.1), ΔUH(Tm) (cal mol^−1)=105000(+/−5000), ΔUS(Tm) (cal mol^−1 K^−1)=[…], ΔUCp (cal mol^−1 K^−1)=2000.
# [2] = target: T2, proMMP9(20-445;ΔFnII) (SEQ ID NO:6) (Homo sapiens, UniProt P14780, DEL216-390); assay: ThermoFluor binding assay with proMMP9(20-445;ΔFnII)
# T2 construct: start methionine (N); made in house; host or cells: E. coli BL21(DE3) RIL
# T2 sequence (P14780 with tags, fused parts or gaps DEL216-390): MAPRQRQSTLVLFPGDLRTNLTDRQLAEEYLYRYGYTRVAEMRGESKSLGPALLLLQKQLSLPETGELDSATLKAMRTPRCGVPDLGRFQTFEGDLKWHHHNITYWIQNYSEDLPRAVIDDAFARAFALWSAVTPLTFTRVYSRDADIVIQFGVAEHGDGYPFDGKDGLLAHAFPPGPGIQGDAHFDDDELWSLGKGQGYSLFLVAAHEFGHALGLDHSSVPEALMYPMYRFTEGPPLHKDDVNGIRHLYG
# Experimental: as §1, §2, §3, §4
# ThermoFluor® with proMMP9(20-445;ΔFnII) (SEQ ID NO:6)
# The protein sample preparations included a desalting buffer exchange step via a PD-10 gravity column (GE Healthcare). The desalting buffer exchange was performed prior to diluting the protein to the final assay concentration of 2.8 μM proMMP9(20-445;ΔFnII) (SEQ ID NO:6). The concentration of proMMP9(20-445;ΔFnII) (SEQ ID NO:6) was determined spectrophotometrically based on a calculated extinction coefficient of ε280=39880 M^−1cm^−1, a calculated molecular weight of 28.2 kDa, and calculated pI of 5.5. ThermoFluor® reference conditions were define as follows: 80 μg/mL (2.8 μM) proMMP9(20-445;ΔFnII) (SEQ ID NO:6), 50 μM 1,8-ANS, pH 7.0 Buffer (50 mM HEPES pH 7.0, 100 mM NaCl, 0.001% Tween-20, 2.5 mM MgCl2, 300 μM CaCl2). The thermodynamic parameters for proMMP9(20-445;ΔFnII) (SEQ ID NO:6) are as follows: Tm (° C.)=72 (+/−0.1), ΔUH(Tm) (cal mol^−1)=160000(+/−5000), ΔUS(Tm) (cal mol^−1 K^−1)=434, ΔUCp (cal mol^−1 K^−1)=2400.
# [3] = target: T3, full-length proMMP9(1-707) (SEQ ID NO:1), activation by catalytic MMP3 (Homo sapiens, UniProt P14780, R574P); assay: proMMP9/MMP3 P126 Activation Assay; type: biochemical
# T3 construct: made in house; host or cells: HEK293 (proMMP9, secreted); E. coli (MMP3)
# T3 sequence (P14780 20-707 R574P): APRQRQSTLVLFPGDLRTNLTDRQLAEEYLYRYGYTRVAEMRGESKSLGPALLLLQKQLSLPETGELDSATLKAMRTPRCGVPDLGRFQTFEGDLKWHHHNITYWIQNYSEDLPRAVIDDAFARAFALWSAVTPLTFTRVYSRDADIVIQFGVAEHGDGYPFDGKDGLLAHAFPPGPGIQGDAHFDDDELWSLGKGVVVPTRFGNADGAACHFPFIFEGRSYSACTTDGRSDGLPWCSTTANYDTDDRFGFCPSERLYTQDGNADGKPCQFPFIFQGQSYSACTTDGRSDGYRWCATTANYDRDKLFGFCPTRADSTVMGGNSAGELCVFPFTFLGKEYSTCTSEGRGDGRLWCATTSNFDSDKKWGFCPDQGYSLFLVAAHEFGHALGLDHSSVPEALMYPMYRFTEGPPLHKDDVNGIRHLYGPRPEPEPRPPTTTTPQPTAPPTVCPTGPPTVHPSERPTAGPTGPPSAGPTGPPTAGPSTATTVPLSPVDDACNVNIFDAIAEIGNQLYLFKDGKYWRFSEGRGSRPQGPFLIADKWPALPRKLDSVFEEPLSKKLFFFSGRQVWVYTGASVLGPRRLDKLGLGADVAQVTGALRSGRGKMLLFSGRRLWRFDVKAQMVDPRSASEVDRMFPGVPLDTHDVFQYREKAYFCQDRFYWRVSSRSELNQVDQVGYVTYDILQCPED
# Experimental: proMMP9/MMP3 P126 Activation Assay
# The reaction volume was 50 μL. […] Reactivity of residual MMP3 towards P-126 substrate was minimal under these conditions.
SMILES,Kd [1] [nM],Kd [2] [nM],IC50 [3] [nM]
"CCN1CCN(c2ccc(-c3csc(Nc4cc(S(N)(=O)=O)ccc4OC(C)C)n3)cn2)CC1 [Example 38, 4-Isopropoxy-3-{4-[6-(4-ethyl-piperazin-1-yl)-pyridin-3-yl]-thiazol-2-ylamino}-benzenesulfonamide.TFA]",380,73,170
"CC(C)Oc1ccc(S(N)(=O)=O)cc1Nc1nc(-c2ccc(C(=O)NC3CC(C)(C)N(C)C(C)(C)C3)nc2)cs1 [Example 84, 5-(2-((2-Isopropoxy-5-sulfamoylphenyl)amino)thiazol-4-yl)-N-(1,2,2,6,6-pentamethylpiperidin-4-yl)picolinamide.TFA]",200,250,260
"COCCCc1ccc(-c2csc(Nc3cc(S(N)(=O)=O)ccc3OC(C)C)n2)cn1 [Example 94, 4-Isopropoxy-3-((4-(6-(3-methoxypropyl)pyridin-3-yl)thiazol-2-yl)amino)benzenesulfonamide.TFA]",1300,430,520
"CC(C)Oc1ccc(S(N)(=O)=O)cc1Nc1nc(-c2ccc(C(=O)N3CCCN(C)CC3)nc2)cs1 [Example 49, 3-{4-[6-(4-Methyl-[1,4]diazepane-1-carbonyl)-pyridin-3-yl]-thiazol-2-ylamino}-4-isopropoxy-benzenesulfonamide.TFA]",2000,830,1000
"CN1CCN(c2ccc(-c3csc(Nc4cc(S(N)(=O)=O)ccc4OC(F)(F)F)n3)cn2)CC1 [Example 30, 3-{4-[6-(4-Methyl-piperazin-1-yl)-pyridin-3-yl]-thiazol-2-ylamino}-4-trifluoromethoxy-benzenesulfonamide]",690,430,750
"CCS(=O)(=O)c1ccc(OC)c(Nc2nc(-c3cccnc3)cs2)c1 [Example 11, (5-Ethanesulfonyl-2-methoxy-phenyl)-(4-pyridin-3-yl-thiazol-2-yl)-amine.TFA]",16000,5900,–
"CC(C)Oc1ccc(S(N)(=O)=O)cc1Nc1nc(-c2ccc(NCCCn3ccnc3)nc2)cs1 [Example 63, 3-((4-(6-((3-(1H-Imidazol-1-yl)propyl)amino)pyridin-3-yl)thiazol-2-yl)amino)-4-isopropoxybenzenesulfonamide.TFA]",280,210,150
"CCOC(=O)CCNC(=O)c1ccc(-c2csc(Nc3cc(S(N)(=O)=O)ccc3OC(C)C)n2)cn1 [Example 87, Ethyl 3-(5-(2-((2-isopropoxy-5-sulfamoylphenyl)amino)thiazol-4-yl)picolinamido)propanoate.TFA]",–,360,~2000
"COC1CCN(c2ccc(-c3csc(Nc4cc(S(N)(=O)=O)ccc4OC(C)C)n3)cn2)CC1 [Example 78, 4-Isopropoxy-3-((4-(6-(4-methoxypiperidin-1-yl)pyridin-3-yl)thiazol-2-yl)amino)benzenesulfonamide.TFA]",–,340,~300
"CC(C)Oc1ccc(S(N)(=O)=O)cc1Nc1nc(-c2ccc(N3CCC(O)CC3)nc2)cs1 [Example 70, 3-((4-(6-(4-Hydroxypiperidin-1-yl)pyridin-3-yl)thiazol-2-yl)amino)-4-isopropoxybenzenesulfonamide.TFA]",–,250,340
"CC(C)Oc1ccc(S(N)(=O)=O)cc1Nc1nc(-c2ccc(C(=O)NC3CN4CCC3CC4)nc2)cs1 (stereo not shown) [Example 86, 5-(2-((2-Isopropoxy-5-sulfamoylphenyl)amino)thiazol-4-yl)-N-(1-azabicyclo[2.2.2]octan-3-yl)picolinamide.TFA]",–,460,400
"CC(C)Oc1ccc(S(N)(=O)=O)cc1Nc1nc(-c2ccc(N3CCNC(C)(C)C3)nc2)cs1 [Example 69, 3-((4-(6-(3,3-Dimethylpiperazin-1-yl)pyridin-3-yl)thiazol-2-yl)amino)-4-isopropoxybenzenesulfonamide.TFA]",–,65,100
"CC(C)Oc1ccc(S(N)(=O)=O)cc1Nc1nc(-c2ccc(N3CCN(CCC(F)(F)F)CC3)nc2)cs1 [Example 66, 4-Isopropoxy-3-((4-(6-(4-(3,3,3-trifluoropropyl)piperazin-1-yl)pyridin-3-yl)thiazol-2-yl)amino)benzenesulfonamide.TFA]",–,310,> 20000
"CC(C)Oc1ccc(S(N)(=O)=O)cc1Nc1nc(-c2ccc(N3CCN(CC4CC4)CC3)nc2)cs1 [Example 71, 3-((4-(6-(4-(Cyclopropylmethyl)piperazin-1-yl)pyridin-3-yl)thiazol-2-yl)amino)-4-isopropoxybenzenesulfonamide.TFA]",–,75,170
"CC(C)Oc1ccc(S(N)(=O)=O)cc1Nc1nc(-c2ccc(N3CCC(CO)CC3)nc2)cs1 [Example 79, 3-((4-(6-(4-(Hydroxymethyl)piperidin-1-yl)pyridin-3-yl)thiazol-2-yl)amino)-4-isopropoxybenzenesulfonamide.TFA]",–,150,340
"COC(=O)c1ccc(-c2csc(Nc3cc(S(N)(=O)=O)ccc3OC(C)C)n2)cn1 [Intermediate 12, 5-[2-(2-Isopropoxy-5-sulfamoyl-phenylamino)-thiazol-4-yl]-pyridine-2-carboxylic acid methyl ester.TsOH]",410,–,> 20000
"COCCCN(C)c1ccc(-c2csc(Nc3cc(S(N)(=O)=O)ccc3OC(C)C)n2)cn1 [Example 92, 4-Isopropoxy-3-((4-(6-((3-methoxypropyl)(methyl)amino)pyridin-3-yl)thiazol-2-yl)amino)benzenesulfonamide.TFA]",–,450,230
